Experimental data: patent US20120295845A1, “IMIDAZO-PYRAZOLES AS GPR119 INHIBITORS” (Pfizer Inc, priority 2009, published 2012)
Where “and” joins values, the source holds several entries; their conditions need not be identical. Identical values can stand only once. Like-named read-outs stand apart in the source and are kept apart here.

Biological target: T1, human GPR119 (Homo sapiens, UniProt Q8TDV5)
T1 construct: host or cells: HEK293-CRE beta-lactamase cells
T1 sequence (Q8TDV5 1-335): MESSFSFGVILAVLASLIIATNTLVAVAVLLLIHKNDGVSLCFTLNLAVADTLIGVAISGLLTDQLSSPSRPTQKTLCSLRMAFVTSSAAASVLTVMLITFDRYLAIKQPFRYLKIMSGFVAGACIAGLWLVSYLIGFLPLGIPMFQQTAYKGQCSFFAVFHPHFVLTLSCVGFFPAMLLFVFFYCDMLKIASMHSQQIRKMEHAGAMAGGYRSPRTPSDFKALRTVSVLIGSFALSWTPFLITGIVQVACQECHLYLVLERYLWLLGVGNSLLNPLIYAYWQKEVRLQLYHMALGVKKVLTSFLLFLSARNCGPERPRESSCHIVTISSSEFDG
Experiment: beta-lactamase functional assay (hGPR119 HEK293-CRE beta-lactamase reporter)
Assay type: cell-based
Details: for EC50: read-out: Human B-lactamase Functional EC50; for Emax: read-out: Intrinsic Activity* (B-lactamase)
Method: The assay for GPR119 agonists utilizes a cell-based (hGPR119 HEK293-CRE beta-lactamase) reporter construct where agonist activation of human GPR119 is coupled to beta-lactamase production via a cyclic AMP response element (CRE). GPR119 activity is then measured utilizing a FRET-enabled beta-lactamase substrate, CCF4-AM (Live Blazer FRET-B/G Loading kit, Invitrogen cat # K1027). Specifically, hGPR119-HEK-CRE- beta-lactamase cells (Invitrogen 2.5×10^7/mL) were removed from liquid nitrogen storage, and diluted in plating medium (Dulbecco's modified Eagle medium high glucose (DMEM; Gibco Cat # 11995-065), 10% heat inactivated fetal bovine serum (HIFBS; Sigma Cat # F4135), 1×MEM Nonessential amino acids (Gibco Cat # 15630-080), 25 mM HEPES pH 7.0 (Gibco Cat # 15630-080), 200 nM potassium clavulanate (Sigma Cat # P3494). The cell concentration was adjusted using cell plating medium and 50 microL of this cell suspension ([…]) was added into each well of a black, clear bottom, poly-d-lysine coated 384-well plate (Greiner Bio-One cat# 781946) and incubated at 37 degrees Celsius in a humidified environment containing 5% carbon dioxide. After 4 hours the plating medium was removed and replaced with 40 microL of assay medium (Assay medium is plating medium without potassium clavulanate and HIFBS). Varying concentrations of each compound to be tested was then added in a volume of 10 microL (final DMSO≦0.5%) and the cells were incubated for 16 hours at 37 degrees Celsius in a humidified environment containing 5% carbon dioxide. Plates were removed from the incubator and allowed to equilibrate to room temperature for approximately 15 minutes. 10 microL of 6×CCF4/AM working dye solution (prepared according to instructions in the Live Blazer FRET-B/G Loading kit, Invitrogen cat # K1027) was added per well and incubated at room temperature for 2 hours in the dark. Fluorescence was measured on an EnVision fluorimetric plate reader, excitation 405 nm, emission 460 nm/535 nm. EC50 determinations were made from agonist-response curves analyzed with a curve fitting program using a 4-parameter logistic dose-response equation.

[1] = percent of maximal activity relative to standard GPR119 agonist (WO2005121121) at 10 microM, one value per run

`Cc1c(OC2CCN(C(=O)OC(C)C)CC2)ncnc1N1CCn2nccc21` [Example 1, Isopropyl 4-{[6-(2,3-dihydro-1H-imidazo[1,2-b]pyrazol-1-yl)-5-methylpyrimidin-4-yl]oxy}piperidine-1-carboxylate] was tested. Which EC50 (curve was extrapolated to 100% to calculate the EC50 (**), one value per run) did it give?
The EC50 was 8.19 µM and 4.57 µM.

What about the EC50 (hGPR119 HEK293-CRE beta-lactamase cells, 16 h incubation, one value per run) of the same compound?
The EC50 was 0.612 µM and 0.386 µM and 1.15 µM and 1.44 µM.

What about the Emax (marked **: curve extrapolated to 100%, relative to standard GPR119 agonist at 10 microM) of the same compound?
Its Emax is 100%.

What about the “Intrinsic Activity* (B-lactamase)” value [1] of the same compound?
The value was 94% and 96%.

What about the Emax [1] of the same compound?
The Emax was 110%.
